Results: PMC7692735, “Bromo-Cyclobutenaminones as New Covalent UDP-N-Acetylglucosamine Enolpyruvyl Transferase (MurA) Inhibitors” (Pharmaceuticals, 2020)
Converted amounts (≈) assume the structure as drawn. “Also recorded” adds a separate entry of the source. Where two headings read alike, the source gives them in different places.

Legend:
MurA (E. coli) [1] = target: T1, MurA (E. coli) (Escherichia coli, UniProt P0A749); assay: MurA assay, colorimetric malachite green method; assay type: biochemical; details: for MurA inhibition in screening: 500 μM screening concentration
T1 construct: made in house; host or cells: E. coli
T1 sequence (P0A749 whole entry): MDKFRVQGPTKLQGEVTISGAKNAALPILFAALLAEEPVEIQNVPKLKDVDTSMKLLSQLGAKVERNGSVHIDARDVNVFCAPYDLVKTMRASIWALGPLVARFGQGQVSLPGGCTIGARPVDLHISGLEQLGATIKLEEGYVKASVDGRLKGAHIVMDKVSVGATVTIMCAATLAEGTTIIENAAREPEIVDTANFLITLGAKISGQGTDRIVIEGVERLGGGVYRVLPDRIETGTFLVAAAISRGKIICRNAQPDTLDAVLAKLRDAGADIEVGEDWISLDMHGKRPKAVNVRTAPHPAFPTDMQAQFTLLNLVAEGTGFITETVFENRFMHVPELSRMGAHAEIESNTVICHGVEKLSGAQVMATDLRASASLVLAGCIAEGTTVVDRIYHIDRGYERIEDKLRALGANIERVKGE
Method: MurAEC protein was recombinant, expressed in E. coli. The inhibition of MurA was monitored with the colorimetric malachite green method in which orthophosphate generated during the reaction is measured. MurA enzyme (E. coli) was pre-incubated with the substrate UNAG and compound for 30 min at 37 °C. The reaction was started by the addition of the second substrate PEP, resulting in a mixture with a final volume of 50 μL. The mixtures contained: 50 mM Hepes, pH 7.8, 0.005% Triton X-114, 200 μM UNAG, 100 μM PEP, purified MurA (diluted in 50 mM Hepes, pH 7.8) and 500 μM of each tested compound dissolved in DMSO. All compounds were soluble in the assay mixtures containing 5% DMSO (v/v). After incubation for 15 min at 37 °C, the enzyme reaction was terminated by adding Biomol® reagent (100μL) and the absorbance was measured at 650 nm after 5 min. All of the experiments were run in duplicate. Remaining activities (RAs) were calculated with respect to similar assays without the tested compounds and with 5% DMSO. The IC50 values, the concentration of the compound at which the remaining activity was 50%, were determined by measuring the remaining activities at seven different compound concentrations. The data are expressed as means of duplicate determinations, and the standard deviations were within 10% of the given values. A time-dependent inhibition assay was also performed. The IC50 values were determined at 0, 15 and 30 min of pre-incubation.

MurA (E. coli) [2] = target: T1, MurA (E. coli); details: known MurA inhibitors, Figure 1; cited from earlier work
MurA Cys115 = assay: MS/MS of tryptic digested MurA, covalent labelling; assay type: binding, E. coli; details: tryptic peptide amino acids 104–120
Method: The tryptic digestion method was adapted from our former publication.
Briefly, 50 μL of MurA (42 μM) and 10 μL 0.2% (w/v) RapiGest SF (Waters Corp., Milford, MA, USA) solution buffered with 50 mM ammonium bicarbonate (NH4HCO3) were mixed (pH = 7.8). 4.5 μL of 45 mM DTT (~200 nmol) in 100 mM NH4HCO3 was added and the mixture kept at 37.5 °C for 30 min. After cooling the sample to room temperature, 7.5 μL of 100 mM iodoacetamide (750 nmol) in 100 mM NH4HCO3 was added and the mixture placed in the dark at room temperature for 30 min. The reduced and alkylated protein was then digested by 10 μL (1 mg mL^−1) trypsin (the enzyme-to-protein ratio was 1:10) (Sigma, St Louis, MO, USA). The sample was incubated at 37 °C overnight. To degrade the surfactant, 7 μL of HCOOH (500 mM) solution was added to the digested […] sample to obtain the final 40 mM (pH ≈ 2) solution which was incubated at 37 °C for 45 min. For LC-MS analysis, the acid-treated sample was centrifuged for 5 min at 13,000 rpm.
A QTRAP 6500 triple quadruple—linear ion trap mass spectrometer, equipped with a Turbo V source in electrospray mode (AB Sciex Pte. Ltd., Framingham, MA, USA) and an Agilent 1100 Binary Pump HPLC system (Agilent Technologies, Waldbronn, Germany) equipped with an autosampler was used for LC-MS/MS analysis. […]

[3] = Aqueous stability assay in PBS buffer; assay type: physicochemical; details: PBS buffer pH 7.4, room temperature; read-out: t1/2 aqueous degradation (converted)
Method: (§1) The assay was adapted from our former publication.
(§2) For the glutathione assay, 500 μM solution of the fragment (PBS buffer pH 7.4, 10% MeCN, 250 μL) with 200 μM solution of indoprofen (Merck KGaA, Darmstadt, Germany) as internal standard was added to 10 mM glutathione (Merck KGaA, Darmstadt, Germany) solution (dissolved in PBS buffer, 250 μL) in a 1:1 ratio. The final concentration was 250 μM fragment, 100 μM indoprofen, 5 mM glutathione and 5% MeCN (500 μL). The final mixture was analyzed by HPLC-MS (Shimadzu LCMS-2020) after 0, 1, 2, 4, 20, 25, 48, 72 h time intervals. […] The AUC (area under the curve) values were determined via integration of HPLC spectra then corrected using the internal standard. […] The data are expressed as means of duplicate determinations, and the standard deviations were within 10% of the given values. […]
(§3) The reaction half-life for pseudo-first-order reactions is t1/2 = ln2/k, where k is the reaction rate. […] In our case, the corrected kdeg and keff (regarding blank and GSH-containing samples, respectively) can be calculated by linear regression of the data points of the kinetic measurements. The corrected kGSH is calculated by keff − kdeg, and finally, the half-life time is determined using the equation t1/2(GSH) = ln2/kGSH.

[4] = GSH reactivity assay (HPLC-MS); assay type: physicochemical; details: 250 μM fragment, 5 mM glutathione, PBS pH 7.4, 5% MeCN
Method: as §1, §2, §3

S. aureus (ATCC 29213) = assay: Antimicrobial testing (MIC), broth microdilution; assay type: cell-based; details: Staphylococcus aureus, ATCC29213, positive control
Method: (§4) Antimicrobial testing was carried out by the broth microdilution method in 96-well plate format following the CLSI guidelines and European Committee for Antimicrobial Susceptibility Testing recommendations. Bacterial suspension of specific bacterial strain, equivalent to 0.5 McFarland turbidity standard, was diluted with cation-adjusted Mueller Hinton broth to obtain a final inoculum of 10^5 CFU/mL. Compounds dissolved in DMSO and inoculum were mixed together and incubated for 20–24 h at 37 °C. After incubation the minimal inhibitory concentration (MIC) values were determined by visual inspection as the lowest dilution of compounds showing no turbidity. The MICs were determined against S. aureus (ATCC 29213) and E. coli (ATCC 25922) bacterial strains. Tetracycline was used as a positive control on every assay plate, showing a MIC of 0.5 µg/mL and 1 µg/mL for S. aureus and E. coli, respectively.

E. coli (ATCC 25922) = assay: Antimicrobial testing (MIC), broth microdilution; assay type: cell-based; details: Escherichia coli, ATCC25922, positive control
Method: as §4

MurA (E. cloacae) = test system: MurA (E. cloacae); set-up: method as in PMID 24755374, PMID 25521652, PMID 11600375, PMID 30461051; details: known MurA inhibitors, Figure 1; cited from earlier work
[5] = fragment 500 μM, 30 min preincubation at 37 °C
[6] = fragment 500 μM, 30 min preincubation at 37 °C, read-out: RA (remaining activity) at 500 µM
[7] = 30 min preincubation, read-out: IC50 (converted)

Compound: 2-Bromo-4,4-dimethyl-3-(methylamino)cyclobut-2-en-1-one [15b]
- RA (remaining activity) at 500 µM (MurA (E. coli) [1]; [5]): 91 ± 5%

Compound: C=C1C(=O)OCC1O (racemic) [(±)-tulipaline B]
- IC50 (MurA (E. coli) [2]): 2.2 µM

Compound: CNC1=CC(=O)C1(C)C [14a, 3-(Methylamino)-4,4-dimethylcyclobut-2-en-1-one]
- remaining activity at 500 µM (MurA (E. coli) [1]; [6]): 93 ± 4%

Compound: CN(C)C1=CC(=O)C1(C)C [14b, 3-(Dimethylamino)-4,4-dimethylcyclobut-2-en-1-one]
- remaining activity at 500 µM (MurA (E. coli) [1]; [6]): 99 ± 1%

Compound: CCN(CC)C1=CC(=O)C1(C)C [14c, 3-(Diethylamino)-4,4-dimethylcyclobut-2-en-1-one]
- remaining activity at 500 µM (MurA (E. coli) [1]; [6]): 96 ± 2%

Compound: COc1ccc(CN(C)C2=CC(=O)C2(C)C)cc1 [14d, 3-((4-Methoxybenzyl)(methyl)amino)-4,4-dimethylcyclobut-2-en-1-one]
- remaining activity at 500 µM (MurA (E. coli) [1]; [6]): 99 ± 3%

Compound: CN(CC(F)(F)F)C1=CC(=O)C1(C)C [14e, 4,4-Dimethyl-3-(methyl(2,2,2-trifluoroethyl)amino)cyclobut-2-en-1-one]
- remaining activity at 500 µM (MurA (E. coli) [1]; [6]): 98 ± 7%

Compound: CNC1=C(Br)C(=O)C1(C)C [15a, 2-Bromo-4,4-dimethyl-3-(methylamino)cyclobut-2-en-1-one]
- remaining activity at 500 µM (MurA (E. coli) [1]; [6]): 100 ± 7%

Compound: CCN(CC)C1=C(Br)C(=O)C1(C)C [15c, 2-Bromo-3-(diethylamino)-4,4-dimethylcyclobut-2-en-1-one]
- remaining activity at 500 µM (MurA (E. coli) [1]; [6]): 88 ± 6%

Compound: COc1ccc(CN(C)C2=C(Br)C(=O)C2(C)C)cc1 [15d, 2-Bromo-3-((4-methoxybenzyl)(methyl)amino)-4,4-dimethylcyclobut-2-en-1-one]
- IC50 (MurA (E. coli) [1]; [7]): 363 µM
- RA (remaining activity) at 500 µM (MurA (E. coli) [1]; [5]): 13 ± 1%
- remaining activity at 500 µM (MurA (E. coli) [1]; read-out: RA (remaining activity) at 500 µM, fragment 500 μM, 30 min preincubation at 37 °C): < 15%

Compound: CN(CC(F)(F)F)C1=C(Br)C(=O)C1(C)C [15e, 2-Bromo-4,4-dimethyl-3-(methyl(2,2,2-trifluoroethyl)amino)cyclobut-2-en-1-one]
- MurA inhibition in screening (MurA (E. coli) [1]): no effect
- remaining activity at 500 µM (MurA (E. coli) [1]; [6]): 84 ± 4%

Compound: CN(C(=O)c1ccccc1)C1=CC(=O)C1(C)C [16a, N-(4,4-dimethyl-3-oxocyclobut-1-en-1-yl)-N-methylbenzamide]
- remaining activity at 500 µM (MurA (E. coli) [1]; [6]): 99 ± 8%

Compound: CN(C(=O)c1ccccc1)C1=C(Br)C(=O)C1(C)C [17a, N-(2-bromo-4,4-dimethyl-3-oxocyclobut-1-en-1-yl)-N-methylbenzamide]
- Covalent labelling site on MurA by MS/MS (MurA Cys115): labelled on Cys115; also recorded: labeling on Cys115
- IC50 (MurA (E. coli) [1]; IC50, 30 min preincubation): 138 µM
- remaining activity at 500 µM (MurA (E. coli) [1]; [6]): 12 ± 3%
- half-life at 250 μM [3]: 2190 min
- kGSH rate constant of conjugation with GSH [4]: 0.0128 M/min

Compound: CC(=O)N(C)C1=C(Br)C(=O)C1(C)C [17b, N-(2-bromo-4,4-dimethyl-3-oxocyclobut-1-en-1-yl)-N-methylacetamide]
- Covalent labelling site on MurA by MS/MS (MurA Cys115): labeling on Cys115
- IC50 (MurA (E. coli) [1]; 0 min preincubation, read-out: IC50 (converted)): 356 ± 29 µM
- IC50 (MurA (E. coli) [1]; 15 min preincubation, read-out: IC50 (converted)): 149 ± 15 µM
- IC50 (MurA (E. coli) [1]; [7]): 128 µM
- remaining activity at 500 µM (MurA (E. coli) [1]; [6]): 8 ± 2%

Compound: CN(C)[C@@H]1C(O)=C(C(N)=O)C(=O)[C@@]2(O)C(O)=C3C(=O)c4c(O)cccc4[C@@](C)(O)[C@H]3C[C@@H]12 [Tetracycline]
- MIC (S. aureus (ATCC 29213)): 0.5 µg/mL (≈ 1.13 µM)
- MIC (E. coli (ATCC 25922)): 1 µg/mL (≈ 2.25 µM)

Compound: O=C1O/C(=C\c2cccc3ccccc23)C(O)=C1c1ccc(C(F)(F)F)cc1 [compound 5]
- IC50 (MurA (E. coli) [2]): 39 µM

Compound: C=C(C(=O)O)[C@@H]1[C@@H](CCCCCCCC)OC(=O)[C@@H]1O [compound 8]
- IC50 (MurA (E. coli) [2]): 2.8 µM

Compound: C=Cc1cncs1 [compound 9]
- IC50 (MurA (E. coli) [2]): 66 µM

Compound: Ic1cncnc1 [compound 10]
- IC50 (MurA (E. coli) [2]): 3.8 µM

Compound: CCOC1=CC(=O)C1(C)C [compound 12, 3-Ethoxy-4,4-dimethylcyclobut-2-en-1-one]
- MurA inhibition in screening (MurA (E. coli) [1]): to no avail
- remaining activity at 500 µM (MurA (E. coli) [1]; [6]): 98 ± 2%

Compound: CC1=C(O)C(=O)[C@@H]2O[C@@H]2C1=O [terreic acid]
- IC50 (MurA (E. cloacae)): 14 µM
